Article PMC8032764 (Scientific Reports, 2021)

What was measured:
Serotonin 5-HT2B = test system: T1, Serotonin 5-HT2B; assay: Cerep binding; set-up: species or system human; details: 10 μM; [125I](±)DOI; hum. recomb. (CHO)
T1 construct: purchased Eurofins Cerep

Glucocorticoid = test system: T2, Glucocorticoid; assay: Cerep binding; set-up: species or system human; details: 10 μM; [3H]dexamethasone; hum., IM-9 cells, cytosol
T2 construct: hum., IM-9 cells,; host or cells: IM-9 cells, cytosol

SKCa channel = assay: Cerep binding; details: 10 μM; [125I]apamin; rat cerebral cortex
Serotonin 5-HT3 = test system: T3, Serotonin 5-HT3; assay: Cerep binding; set-up: species or system human; details: 10 μM; [3H]BRL 43694; hum. recomb. (CHO)
T3 construct: purchased Eurofins Cerep

Opioid μ = test system: T4, Opioid μ; assay: Cerep binding; set-up: species or system human; details: 10 μM; [3H]DAMGO; hum. recomb. (HEK-293)
T4 construct: host or cells: HEK-293

[1] = test system: T5, Vasoactive intestinal peptide VPAC1 (VIP1); assay: Cerep binding; set-up: species or system human; details: 10 μM; [125I]VIP; hum. recomb. (CHO)
T5 construct: host or cells: CHO

Histamine H2 = test system: T6, Histamine H2; assay: Cerep binding; set-up: species or system human; details: 10 μM; [125I]APT; hum. recomb. (CHO)
T6 construct: host or cells: CHO

Neurokinin NK3 = test system: T7, Neurokinin NK3; assay: Cerep binding; set-up: species or system human; details: 10 μM; [3H]SR 142801; hum. recomb. (CHO)
T7 construct: purchased Eurofins Cerep

GABAA-α5 receptors = assay: Receptor occupancy estimated from free plasma concentrations, object retrieval; assay type: in vivo, Macaca fascicularis
Excerpt: Free plasma concentrations were used to estimate receptor occupancy.

Cannabinoid CB1 = test system: T8, Cannabinoid CB1; assay: Cerep binding; set-up: species or system human; details: 10 μM; [3H]CP 55940; hum. recomb. (CHO)
T8 construct: host or cells: CHO

Dopamine D2S = test system: T9, Dopamine D2S; assay: Cerep binding; set-up: species or system human; details: 10 μM; [3H]spiperone; hum. recomb. (HEK-293)
T9 construct: host or cells: HEK-293

Prostanoid IP (PGI2) = test system: T10, Prostanoid IP (PGI2); assay: Cerep binding; set-up: species or system human; details: 10 μM; [3H]iloprost; hum. recomb. (HEK-293)
T10 construct: host or cells: HEK-293

[2] = test system: GABAA Cl- channel (non- selective); assay: Cerep binding; details: 10 μM; [35S]TBPS; rat cerebral cortex
Serotonin 5-HT1B = test system: T11, Serotonin 5-HT1B; assay: Cerep binding; details: 10 μM; [125I]CYP; rat cerebral cortex
T11 construct: purchased Eurofins Cerep

Cc1onc(-c2ccc(F)cc2)c1COc1ccc(C(=O)N2CCS(=O)(=O)CC2)cn1 [basmisanil]
% Inhibition (Serotonin 5-HT2B): 31% | % Inhibition (Glucocorticoid): -2% | % Inhibition (SKCa channel): 3% | % Inhibition (Serotonin 5-HT3): 8% | % Inhibition (Opioid μ): 3% | % Inhibition [1]: 0% | % Inhibition (Histamine H2): 8% | % Inhibition (Neurokinin NK3): -9% | estimated receptor occupancy (GABAA-α5 receptors; 3 mg/kg p.o.): about 30% | estimated receptor occupancy (GABAA-α5 receptors; 10 mg/kg p.o.): around 50% | % Inhibition (Cannabinoid CB1): 16% | % Inhibition (Dopamine D2S): 9% | % Inhibition (Prostanoid IP (PGI2)): -1% | % Inhibition [2]: -6% | % Inhibition (Serotonin 5-HT1B): 0%
